Laboratory results published in patent US20090004101A1, “Method and Means for Enhanced Pulmonary Drug Delivery” (UNIVERSITY COLLEGE CARDIFF CONSULTANTS LIMITED, priority 2004, published 2009).

How the values were obtained:
[1] = EDTA co-administered; cited from earlier work
[2] = Pulmonary absorption of human insulin co-administered intratracheally with P2Y receptor agonists to anesthetized rabbits (plasma insulin by radioimmunoassay); type: in vivo, New Zealand white rabbits; conditions: for Effect of the P2Y agonist on t1/2, Cmax and F of insulin administered to the lungs: co-administered with insulin to rabbit lungs, summary in words; for Cmax of insulin / F (bioavailable fraction) of insulin / t1/2 of insulin: rabbit, mean±SD, n=4
Description: Briefly, New Zealand white rabbits were anesthetized with Hypnovel (Roche, Welwyn Garden City, UK), 0.3 mg/kg i.v. via cannula in the ear, and Hypnorrn (Janssen Animal Health, Grove, Oxford, UK), 0.1 mg/kg via intramuscular injection. Once intubated with a polyethylene endotracheal tube (i.d. 4 mm, o.d. 5 mm; Portex, UK) coated with a layer of xylocalne gel (Astra Pharmaceuticals, Kings Langley, UK), a second, smaller polyethylene dosing tube was inserted inside the endotracheal tube to the point of the bifurcation of the trachea.

[3] = insulin 10 U/kg intratracheal with Up4U 0.2 mg (2.0 mg/mL)
[4] = insulin 10 U/kg intratracheal with Up4U 0.62 mg (6.2 mg/mL)

SMILES | Effect on uptake of calcitonin following intratracheal administration to the lungs [1] | Effect of the P2Y agonist on t1/2, Cmax and F of insulin administered to the lungs [2] | Cmax of insulin ([2]; insulin 10 U/kg intratracheal with UTP 0.34 mg (3.4 mg/mL)) [μU/mL] | Cmax of insulin ([2]; insulin 10 U/kg intratracheal with UTP 1.5 mg (15 mg/mL)) [μU/mL] | Cmax of insulin [2, 3] [μU/mL] | F (bioavailable fraction) of insulin [2, 3] [%] | t1/2 of insulin [2, 3] [h] | Cmax of insulin [2, 4] [μU/mL] | F (bioavailable fraction) of insulin [2, 4] [%] | t1/2 of insulin [2, 4] [h]
O=C(O)CN(CCN(CC(=O)O)CC(=O)O)CC(=O)O [EDTA] | did increase | – | – | – | – | – | – | – | – | –
O=c1ccn([C@@H]2O[C@H](COP(=O)(O)OP(=O)(O)OP(=O)(O)O)[C@@H](O)[C@H]2O)c(=O)[nH]1 [UTP, uridine 5′-triphosphate] | – | increase the half life (t1/2), maximal plasma concentration (Cmax) and the overall bioavailable fraction (F) of insulin | 828 ± 42.4 | 1515 ± 297 | – | – | – | – | – | –
O=c1ccn([C@@H]2O[C@H](COP(=O)(O)OP(=O)(O)OP(=O)(O)OP(=O)(O)OC[C@H]3O[C@@H](n4ccc(=O)[nH]c4=O)[C@H](O)[C@@H]3O)[C@@H](O)[C@H]2O)c(=O)[nH]1 [Up4U, P^1,P^4-di(uridine 5′-)tetraphosphate] | – | increase the half life (t1/2), maximal plasma concentration (Cmax) and the overall bioavailable fraction (F) of insulin | – | – | 531 ± 89.5 | 8.07 ± 3.40 | 1.33 ± 0.7102 | 655 ± 46.17 | 5.47 ± 1.03 | 0.798 ± 0.0372
